# According to PubChem BioAssay (NCI):
#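 48-hour exposure; five concentrations; linearly interpolated endpoints. Definition used: TGI = concentration required for complete inhibition of growth.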
# Tests used:
# Experiment in all cases: DTP human tumour cell line panel, 48 h
# RPMI-8226 leukemia = test system: RPMI-8226 leukemia
# SF-295 CNS = test system: SF-295 CNS
# OVCAR-3 ovarian = test system: OVCAR-3 ovarian
# PC-3 prostate = test system: PC-3 prostate
# T-47D breast = test system: T-47D breast
# NCI/ADR-RES ovarian = test system: NCI/ADR-RES ovarian
structure (smiles),measurement,setting,value
COC(=O)c1cc(=O)nc2sc3cccc(C)c3n12,TGI,RPMI-8226 leukemia,67.9 µM
same,TGI,SF-295 CNS,> 100 µM
same,TGI,OVCAR-3 ovarian,82.8 µM
same,TGI,PC-3 prostate,> 100 µM
same,TGI,T-47D breast,> 100 µM
same,TGI,NCI/ADR-RES ovarian,> 100 µM
CCOC(=O)C1(C/C=C/CBr)Cc2ccccc2C1=O (stereo unspecified),TGI,RPMI-8226 leukemia,4.88 µM
same,TGI,SF-295 CNS,22.1 µM
same,TGI,OVCAR-3 ovarian,4.54 µM
same,TGI,PC-3 prostate,19.2 µM
same,TGI,T-47D breast,12.2 µM
same,TGI,NCI/ADR-RES ovarian,5.02 µM
Cc1cc(Cc2cc(C)c(N)cc2N)c(N)cc1N,TGI,RPMI-8226 leukemia,> 100 µM
same,TGI,SF-295 CNS,> 100 µM
same,TGI,OVCAR-3 ovarian,> 100 µM
same,TGI,PC-3 prostate,> 100 µM
same,TGI,T-47D breast,> 100 µM
same,TGI,NCI/ADR-RES ovarian,> 100 µM
CN1CCc2cc(N)cc3c2C1Cc1ccc(O)c(O)c1-3 (stereo unspecified),TGI,RPMI-8226 leukemia,66.4 µM
same,TGI,SF-295 CNS,> 100 µM
same,TGI,OVCAR-3 ovarian,72.8 µM
same,TGI,PC-3 prostate,> 100 µM
same,TGI,T-47D breast,> 100 µM
same,TGI,NCI/ADR-RES ovarian,> 100 µM
CCOC(=O)/C=C/CC(C)(C)CCOC(C)=O,TGI,RPMI-8226 leukemia,> 10 µM
same,TGI,SF-295 CNS,> 10 µM
same,TGI,OVCAR-3 ovarian,> 10 µM
same,TGI,PC-3 prostate,> 10 µM
same,TGI,T-47D breast,> 10 µM
same,TGI,NCI/ADR-RES ovarian,> 10 µM
Cc1n[nH]c(=O)n1/N=C/c1ccc(Cl)cc1,TGI,RPMI-8226 leukemia,> 100 µM
same,TGI,SF-295 CNS,> 100 µM
same,TGI,OVCAR-3 ovarian,> 100 µM
same,TGI,T-47D breast,> 100 µM
same,TGI,NCI/ADR-RES ovarian,> 100 µM
COC(=O)c1ccccc1CC1Cc2ccc3c(c2C1=O)CCCC3 (stereo unspecified),TGI,RPMI-8226 leukemia,> 75.5 µM
same,TGI,SF-295 CNS,> 100 µM
same,TGI,OVCAR-3 ovarian,> 100 µM
same,TGI,PC-3 prostate,> 100 µM
same,TGI,T-47D breast,> 78.1 µM
same,TGI,NCI/ADR-RES ovarian,> 84.9 µM
COc1cc2c(c(OC)c1OC)C(=O)[C@@H]1[C@H]2N1C(N)=O,TGI,RPMI-8226 leukemia,> 100 µM
same,TGI,SF-295 CNS,> 100 µM
same,TGI,OVCAR-3 ovarian,> 100 µM
same,TGI,PC-3 prostate,> 100 µM
same,TGI,T-47D breast,> 100 µM
same,TGI,NCI/ADR-RES ovarian,> 100 µM
CC(C)(C)N1CSC(=S)N(Cc2ccco2)C1,TGI,RPMI-8226 leukemia,0.697 µM
same,TGI,SF-295 CNS,31.5 µM
same,TGI,OVCAR-3 ovarian,4.94 µM
same,TGI,PC-3 prostate,13.7 µM
same,TGI,T-47D breast,46.4 µM
same,TGI,NCI/ADR-RES ovarian,18.4 µM
CCCCCCCCCCCCCCNC(=O)CCC(NC(=O)c1ccc(N(C)Cc2cnc3nc(N)nc(N)c3n2)cc1)C(=O)NCCCCCCCCCCCCCC (stereo unspecified),TGI,SF-295 CNS,28.9 µM
same,TGI,OVCAR-3 ovarian,> 46 µM
same,TGI,PC-3 prostate,22.5 µM
same,TGI,T-47D breast,38.5 µM
same,TGI,NCI/ADR-RES ovarian,> 100 µM
COc1ccc2c(c1)/C(=C/CCN(C)C)c1ccccc1S2,TGI,SF-295 CNS,> 100 µM
same,TGI,OVCAR-3 ovarian,> 100 µM
same,TGI,PC-3 prostate,> 100 µM
same,TGI,T-47D breast,> 100 µM
same,TGI,NCI/ADR-RES ovarian,> 100 µM
O=c1c2cc([N+](=O)[O-])cnc2sn1-c1ccc([N+](=O)[O-])cc1,TGI,RPMI-8226 leukemia,81.2 µM
same,TGI,SF-295 CNS,> 100 µM
same,TGI,OVCAR-3 ovarian,> 100 µM
same,TGI,PC-3 prostate,83.8 µM
same,TGI,T-47D breast,83.6 µM
same,TGI,NCI/ADR-RES ovarian,99.3 µM
O=c1[nH]c(Nc2cccc(CC(F)(F)F)c2)nc2nc[nH]c12,TGI,RPMI-8226 leukemia,> 100 µM
same,TGI,SF-295 CNS,> 100 µM
same,TGI,OVCAR-3 ovarian,> 100 µM
same,TGI,PC-3 prostate,> 100 µM
same,TGI,T-47D breast,> 100 µM
same,TGI,NCI/ADR-RES ovarian,> 100 µM
Cc1ccccc1C(=O)N1CCc2c([nH]c3ccccc23)C1,TGI,RPMI-8226 leukemia,51.3 µM
same,TGI,SF-295 CNS,> 100 µM
same,TGI,OVCAR-3 ovarian,74.1 µM
same,TGI,PC-3 prostate,33.9 µM
same,TGI,T-47D breast,71.8 µM
same,TGI,NCI/ADR-RES ovarian,62.7 µM
COC(=O)C([C@H](NC1(c2ccccc2)c2ccccc2-c2ccccc21)C(=O)OC)N(NC(=O)OCc1ccccc1)C(=O)OCc1ccccc1 (mixture of isomers),TGI,RPMI-8226 leukemia,> 100 µM
same,TGI,SF-295 CNS,> 100 µM
same,TGI,OVCAR-3 ovarian,> 100 µM
same,TGI,PC-3 prostate,> 100 µM
same,TGI,T-47D breast,> 100 µM
same,TGI,NCI/ADR-RES ovarian,> 100 µM
Cc1ccc([N+](=O)[O-])cc1NC1=NCCO1,TGI,RPMI-8226 leukemia,> 100 µM
same,TGI,SF-295 CNS,> 100 µM
same,TGI,OVCAR-3 ovarian,> 100 µM
same,TGI,PC-3 prostate,> 100 µM
same,TGI,T-47D breast,> 100 µM
same,TGI,NCI/ADR-RES ovarian,> 100 µM
C[C@@H]1CC[C@]2(C(=O)O)CC[C@]3(C)C(=CC[C@@H]4[C@@]5(C)CC[C@H](O)C(C)(C)[C@@H]5CC[C@]43C)[C@@H]2[C@]1(C)O,TGI,RPMI-8226 leukemia,33.9 µM
same,TGI,SF-295 CNS,10.6 µM
same,TGI,OVCAR-3 ovarian,32.6 µM
same,TGI,T-47D breast,32.9 µM
same,TGI,NCI/ADR-RES ovarian,32.6 µM
CC(=O)NC(Cc1ccc(O)cc1)C(=O)O (stereo unspecified),TGI,RPMI-8226 leukemia,> 100 µM
same,TGI,SF-295 CNS,> 100 µM
same,TGI,OVCAR-3 ovarian,> 100 µM
same,TGI,PC-3 prostate,> 100 µM
same,TGI,T-47D breast,> 100 µM
same,TGI,NCI/ADR-RES ovarian,> 100 µM
C1CN(c2nc3c(nnc4nc(N5CCOCC5)sc43)s2)CCO1,TGI,RPMI-8226 leukemia,> 100 µM
same,TGI,SF-295 CNS,> 100 µM
same,TGI,OVCAR-3 ovarian,> 100 µM
same,TGI,PC-3 prostate,> 100 µM
same,TGI,T-47D breast,> 100 µM
same,TGI,NCI/ADR-RES ovarian,> 100 µM
CCOC(=O)C(SCCO)C(C(=O)OCC)n1cnc2c(=O)[nH]c(NC(C)=O)nc21 (stereo unspecified),TGI,RPMI-8226 leukemia,> 100 µM
same,TGI,SF-295 CNS,> 100 µM
same,TGI,OVCAR-3 ovarian,> 100 µM
same,TGI,PC-3 prostate,> 100 µM
same,TGI,T-47D breast,> 100 µM
same,TGI,NCI/ADR-RES ovarian,> 100 µM
N#CC1(C#N)N[C@@H](c2ccsc2)[C@H]2C(=O)N(c3ccccc3)C(=O)[C@H]21,TGI,RPMI-8226 leukemia,53.5 µM
same,TGI,SF-295 CNS,> 100 µM
same,TGI,OVCAR-3 ovarian,> 100 µM
same,TGI,PC-3 prostate,> 100 µM
same,TGI,T-47D breast,> 100 µM
same,TGI,NCI/ADR-RES ovarian,> 100 µM
COc1cc(Br)cc2cc(-c3cn4ccsc4n3)c(=O)oc12,TGI,RPMI-8226 leukemia,> 100 µM
same,TGI,SF-295 CNS,76.6 µM
same,TGI,OVCAR-3 ovarian,> 100 µM
same,TGI,PC-3 prostate,> 100 µM
same,TGI,T-47D breast,> 100 µM
same,TGI,NCI/ADR-RES ovarian,> 100 µM
c1ccc(N=c2sc3ccccc3nc2Nc2ccccc2)cc1,TGI,RPMI-8226 leukemia,> 100 µM
same,TGI,SF-295 CNS,> 100 µM
same,TGI,PC-3 prostate,> 100 µM
same,TGI,T-47D breast,> 100 µM
same,TGI,NCI/ADR-RES ovarian,> 100 µM
Cc1cn2c(/C=N/N=C(N)N)c(-c3cccc([N+](=O)[O-])c3)nc2s1,TGI,RPMI-8226 leukemia,> 100 µM
same,TGI,SF-295 CNS,3.3 µM
same,TGI,OVCAR-3 ovarian,2.51 µM
same,TGI,PC-3 prostate,4.08 µM
same,TGI,NCI/ADR-RES ovarian,> 100 µM
CC1(C)N=[N+]([O-])C1(C)C,TGI,RPMI-8226 leukemia,> 100 µM
same,TGI,OVCAR-3 ovarian,> 100 µM
same,TGI,PC-3 prostate,> 100 µM
same,TGI,T-47D breast,> 100 µM
same,TGI,NCI/ADR-RES ovarian,> 100 µM
Nn1c(-c2ccccc2)nn(C(=O)c2ccccc2)c1=O,TGI,RPMI-8226 leukemia,> 100 µM
same,TGI,SF-295 CNS,> 100 µM
same,TGI,OVCAR-3 ovarian,> 100 µM
same,TGI,PC-3 prostate,> 100 µM
same,TGI,T-47D breast,> 100 µM
same,TGI,NCI/ADR-RES ovarian,> 100 µM
C[C@@H](NC(=O)[C@@H]1C[C@]1(C)COC(=O)c1cc([N+](=O)[O-])cc([N+](=O)[O-])c1)c1cccc2ccccc12,TGI,RPMI-8226 leukemia,> 100 µM
same,TGI,SF-295 CNS,> 100 µM
same,TGI,OVCAR-3 ovarian,> 100 µM
same,TGI,PC-3 prostate,> 100 µM
same,TGI,T-47D breast,> 100 µM
same,TGI,NCI/ADR-RES ovarian,> 100 µM
Clc1ccccc1C(SCc1ccccc1)SCc1ccccc1,TGI,RPMI-8226 leukemia,> 100 µM
same,TGI,SF-295 CNS,> 100 µM
same,TGI,OVCAR-3 ovarian,> 100 µM
same,TGI,PC-3 prostate,> 100 µM
same,TGI,NCI/ADR-RES ovarian,> 100 µM
COc1ccc(C2CC(c3c(O)ccc4ccccc34)=NN2C(C)=O)cc1OC (stereo unspecified),TGI,RPMI-8226 leukemia,54.4 µM
same,TGI,SF-295 CNS,> 100 µM
same,TGI,OVCAR-3 ovarian,69.6 µM
same,TGI,PC-3 prostate,> 100 µM
same,TGI,T-47D breast,> 100 µM
same,TGI,NCI/ADR-RES ovarian,> 100 µM
